Literature values in patent EP0490031B1, “Method for protecting crops while eliminating crop injury due to pesticide interactions” (priority 1990, dated 1992).

Columns and labels:
rabbits = settings: technical grade

| Structure (SMILES) | acute percutaneous LD50 (rats) | acute percutaneous LD50 (rabbits) |
| --- | --- | --- |
| CCOP(=S)(OCC)SCSCC [Phorate] | 2.5-6.2 mg/kg of animal body weight |  |
| CCOP(=S)(OCC)SCSC(C)(C)C [Technical grade terbufos, O,O-diethyl S-{[(1,1-dimethylethyl)thio]methyl}phosphorodithioate] |  | 1.0 mg/kg of animal body weight |
